The source of these data is US20230074252A1, “DOSAGES AND METHODS FOR TREATING PULMONARY ARTERIAL HYPERTENSION WITH RODATRISTAT” (Altavant Sciences GmbH, priority 2020, published 2023).

“Also recorded” adds a separate entry of the source.

Type in all cases: in vitro ADME
For one data set, the target named is CYP3A4 (Homo sapiens, UniProt P08684). Briefly: In vitro CYP substrate assessment (victim potential).
Another data set deals with MRP2 (Homo sapiens, UniProt Q92887). Put plainly: In vitro transporter substrate assessment. The text has this: (§1) Consequently, the elimination of rodatristat into bile may be impacted by co-administration with agents that are BCRP inhibitors.
A further data set addresses T1, BCRP (Homo sapiens, UniProt Q9UNQ0).
T1 sequence (Q9UNQ0 1-655): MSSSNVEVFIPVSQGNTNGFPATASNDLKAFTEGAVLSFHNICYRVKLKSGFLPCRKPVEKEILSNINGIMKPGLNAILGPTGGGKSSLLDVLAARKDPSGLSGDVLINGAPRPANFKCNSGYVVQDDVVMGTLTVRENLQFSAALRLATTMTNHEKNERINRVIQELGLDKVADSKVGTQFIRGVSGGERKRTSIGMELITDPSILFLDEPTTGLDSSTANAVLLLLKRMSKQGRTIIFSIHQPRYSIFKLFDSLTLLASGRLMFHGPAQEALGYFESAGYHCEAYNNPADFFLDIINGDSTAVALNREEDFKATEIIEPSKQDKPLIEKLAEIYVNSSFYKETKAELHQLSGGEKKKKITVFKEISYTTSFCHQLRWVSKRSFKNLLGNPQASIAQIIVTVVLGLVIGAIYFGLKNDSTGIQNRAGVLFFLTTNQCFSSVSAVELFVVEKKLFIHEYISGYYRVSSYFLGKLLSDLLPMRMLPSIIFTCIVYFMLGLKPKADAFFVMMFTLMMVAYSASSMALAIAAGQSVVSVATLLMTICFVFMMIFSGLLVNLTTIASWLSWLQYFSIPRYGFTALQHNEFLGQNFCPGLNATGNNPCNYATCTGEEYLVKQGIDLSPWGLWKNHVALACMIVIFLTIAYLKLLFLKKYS
Put plainly: In vitro transporter substrate assessment.
Excerpt: as §1

The target of the next data set is T2, P-gp (Homo sapiens, UniProt P08183).
T2 construct: endogenous in cells; host or cells: Caco-2
Put plainly: In vitro transporter substrate assessment.
Excerpt: as §1

Another data set addresses T3, CYP2C8 (Homo sapiens, UniProt P10632).
T3 sequence (P10632 1-490): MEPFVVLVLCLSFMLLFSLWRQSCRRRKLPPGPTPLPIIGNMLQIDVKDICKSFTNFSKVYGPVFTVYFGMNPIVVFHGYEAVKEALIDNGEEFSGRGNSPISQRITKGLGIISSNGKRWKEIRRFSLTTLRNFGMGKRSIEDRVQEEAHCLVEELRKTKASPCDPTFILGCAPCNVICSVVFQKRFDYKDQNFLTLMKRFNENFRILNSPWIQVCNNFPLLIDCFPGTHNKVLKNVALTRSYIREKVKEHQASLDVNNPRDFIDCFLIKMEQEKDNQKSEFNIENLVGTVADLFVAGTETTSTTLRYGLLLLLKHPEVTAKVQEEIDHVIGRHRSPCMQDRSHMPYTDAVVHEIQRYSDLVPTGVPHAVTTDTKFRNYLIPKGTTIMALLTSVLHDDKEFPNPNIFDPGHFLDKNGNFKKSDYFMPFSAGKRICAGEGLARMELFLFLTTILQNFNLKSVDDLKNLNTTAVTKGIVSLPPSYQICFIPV
Put plainly: Direct and time-dependent CYP inhibition, pooled human liver microsomes. Further details: from tissue; host or cells: pooled human liver microsomes (n=200 donors). The note with it: for IC50: human liver microsomes, read-out: In vitro IC50, direct inhibition, CYP2C8; for Calculated R1 Value, CYP2C8: predicted @ 600 mg BID, R1=1+(Imax,unbound/Ki). As for the experimental part:
(§2) “mM^”=millimolar. CYP induction was evaluated using cultured human hepatocytes (from 3 donors) treated once daily for 3 days with RE/R concentrations to […].
(§3) The competitive inhibition of specific CYP isoforms was investigated for RVT-1201 and KAR5417 in human liver microsomes (HLM) (XT155056). Of the […] evaluated in vitro (CYP1A2, CYP2B6, CYP2C8, CYP2C9, CYP2D6, CYP3A4, CYP3A5), RVT-1201 IC50 estimates were determined for CYP2B6, CYP2C8 and CYP3A4 only. […] For each IC50 estimate, substrate concentration and Km were used to estimate RVT-1201 and KAR5417 Ki.

Another data set has as its target CYP2C9 (Homo sapiens, UniProt P11712). Described as above. Further details: from tissue; host or cells: pooled human liver microsomes (n=200 donors). The note with it: for IC50: human liver microsomes, read-out: In vitro IC50, direct inhibition, CYP2C9. As for the experimental part: as §2, §3
(In general: Liver microsomes are a subcellular fraction often used to study metabolism.)

Another data set has as its target T4, CYP1A2 (Homo sapiens, UniProt P05177).
T4 sequence (P05177 1-516): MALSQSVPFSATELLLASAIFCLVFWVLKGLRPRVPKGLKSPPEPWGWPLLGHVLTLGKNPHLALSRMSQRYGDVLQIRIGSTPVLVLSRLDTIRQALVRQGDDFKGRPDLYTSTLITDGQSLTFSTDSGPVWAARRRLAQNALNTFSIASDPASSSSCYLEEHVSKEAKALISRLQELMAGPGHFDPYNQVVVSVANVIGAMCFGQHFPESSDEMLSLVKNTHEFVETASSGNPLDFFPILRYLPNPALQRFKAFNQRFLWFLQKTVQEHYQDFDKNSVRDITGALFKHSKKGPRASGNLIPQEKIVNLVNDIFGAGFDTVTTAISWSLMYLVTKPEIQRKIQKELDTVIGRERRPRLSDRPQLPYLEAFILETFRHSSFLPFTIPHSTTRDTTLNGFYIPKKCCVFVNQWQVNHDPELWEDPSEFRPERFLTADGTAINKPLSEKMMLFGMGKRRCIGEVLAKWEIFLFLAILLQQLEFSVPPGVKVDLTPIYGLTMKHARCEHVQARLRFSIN
The data set is described as above. Further details: from tissue; host or cells: pooled human liver microsomes (n=200 donors). As to the method: as §2, §3

Another data set addresses CYP2C19 (Homo sapiens, UniProt P33261). The description is as above. Further details: from tissue; host or cells: pooled human liver microsomes (n=200 donors). As to the method: as §2, §3

CYP2C9, sequence (P11712 whole entry): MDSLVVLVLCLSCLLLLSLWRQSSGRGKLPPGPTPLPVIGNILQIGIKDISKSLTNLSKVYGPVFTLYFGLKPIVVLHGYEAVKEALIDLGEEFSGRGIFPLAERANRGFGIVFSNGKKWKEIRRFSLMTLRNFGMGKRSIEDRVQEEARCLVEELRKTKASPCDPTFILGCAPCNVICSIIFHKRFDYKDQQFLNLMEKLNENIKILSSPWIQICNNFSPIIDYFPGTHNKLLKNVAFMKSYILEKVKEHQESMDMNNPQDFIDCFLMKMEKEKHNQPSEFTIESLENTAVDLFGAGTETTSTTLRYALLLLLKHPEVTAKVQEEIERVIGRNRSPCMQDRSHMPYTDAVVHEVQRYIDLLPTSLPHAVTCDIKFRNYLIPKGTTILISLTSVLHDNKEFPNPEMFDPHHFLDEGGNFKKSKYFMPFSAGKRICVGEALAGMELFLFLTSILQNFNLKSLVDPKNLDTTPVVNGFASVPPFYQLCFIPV
T2 sequence (P08183 whole entry): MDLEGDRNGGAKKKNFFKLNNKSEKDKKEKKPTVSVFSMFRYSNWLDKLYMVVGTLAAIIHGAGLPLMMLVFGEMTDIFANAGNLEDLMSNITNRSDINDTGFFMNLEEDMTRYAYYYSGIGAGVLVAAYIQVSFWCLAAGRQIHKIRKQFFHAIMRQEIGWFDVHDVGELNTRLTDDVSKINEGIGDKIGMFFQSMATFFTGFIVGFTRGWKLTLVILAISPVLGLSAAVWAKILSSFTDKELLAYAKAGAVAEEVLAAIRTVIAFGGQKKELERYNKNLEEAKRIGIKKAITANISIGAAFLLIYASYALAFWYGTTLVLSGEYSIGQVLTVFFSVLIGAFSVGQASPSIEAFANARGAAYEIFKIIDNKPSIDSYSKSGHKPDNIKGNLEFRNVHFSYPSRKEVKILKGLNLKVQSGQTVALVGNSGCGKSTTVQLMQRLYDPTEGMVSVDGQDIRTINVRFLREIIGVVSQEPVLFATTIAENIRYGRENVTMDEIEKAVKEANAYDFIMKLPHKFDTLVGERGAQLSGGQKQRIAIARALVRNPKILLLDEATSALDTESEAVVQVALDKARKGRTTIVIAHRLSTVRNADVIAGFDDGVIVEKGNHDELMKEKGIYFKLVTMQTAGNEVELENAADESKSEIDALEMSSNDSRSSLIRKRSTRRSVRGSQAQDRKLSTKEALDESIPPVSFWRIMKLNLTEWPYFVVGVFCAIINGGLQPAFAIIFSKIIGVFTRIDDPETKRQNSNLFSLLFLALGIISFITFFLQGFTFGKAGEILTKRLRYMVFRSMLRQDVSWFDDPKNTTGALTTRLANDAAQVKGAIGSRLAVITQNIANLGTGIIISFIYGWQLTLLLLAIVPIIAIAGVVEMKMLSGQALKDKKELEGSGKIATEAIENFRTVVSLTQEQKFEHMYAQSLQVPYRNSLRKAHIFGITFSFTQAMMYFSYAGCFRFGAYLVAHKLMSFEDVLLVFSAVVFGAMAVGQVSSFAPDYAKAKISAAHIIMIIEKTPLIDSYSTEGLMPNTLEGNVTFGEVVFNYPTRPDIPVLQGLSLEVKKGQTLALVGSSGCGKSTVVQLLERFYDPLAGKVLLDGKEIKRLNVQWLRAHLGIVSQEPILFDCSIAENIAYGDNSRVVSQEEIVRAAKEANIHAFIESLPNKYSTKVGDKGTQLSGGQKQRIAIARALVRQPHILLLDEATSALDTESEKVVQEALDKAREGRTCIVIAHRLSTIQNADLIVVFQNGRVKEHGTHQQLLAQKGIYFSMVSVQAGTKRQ
MRP2, sequence (Q92887 whole entry): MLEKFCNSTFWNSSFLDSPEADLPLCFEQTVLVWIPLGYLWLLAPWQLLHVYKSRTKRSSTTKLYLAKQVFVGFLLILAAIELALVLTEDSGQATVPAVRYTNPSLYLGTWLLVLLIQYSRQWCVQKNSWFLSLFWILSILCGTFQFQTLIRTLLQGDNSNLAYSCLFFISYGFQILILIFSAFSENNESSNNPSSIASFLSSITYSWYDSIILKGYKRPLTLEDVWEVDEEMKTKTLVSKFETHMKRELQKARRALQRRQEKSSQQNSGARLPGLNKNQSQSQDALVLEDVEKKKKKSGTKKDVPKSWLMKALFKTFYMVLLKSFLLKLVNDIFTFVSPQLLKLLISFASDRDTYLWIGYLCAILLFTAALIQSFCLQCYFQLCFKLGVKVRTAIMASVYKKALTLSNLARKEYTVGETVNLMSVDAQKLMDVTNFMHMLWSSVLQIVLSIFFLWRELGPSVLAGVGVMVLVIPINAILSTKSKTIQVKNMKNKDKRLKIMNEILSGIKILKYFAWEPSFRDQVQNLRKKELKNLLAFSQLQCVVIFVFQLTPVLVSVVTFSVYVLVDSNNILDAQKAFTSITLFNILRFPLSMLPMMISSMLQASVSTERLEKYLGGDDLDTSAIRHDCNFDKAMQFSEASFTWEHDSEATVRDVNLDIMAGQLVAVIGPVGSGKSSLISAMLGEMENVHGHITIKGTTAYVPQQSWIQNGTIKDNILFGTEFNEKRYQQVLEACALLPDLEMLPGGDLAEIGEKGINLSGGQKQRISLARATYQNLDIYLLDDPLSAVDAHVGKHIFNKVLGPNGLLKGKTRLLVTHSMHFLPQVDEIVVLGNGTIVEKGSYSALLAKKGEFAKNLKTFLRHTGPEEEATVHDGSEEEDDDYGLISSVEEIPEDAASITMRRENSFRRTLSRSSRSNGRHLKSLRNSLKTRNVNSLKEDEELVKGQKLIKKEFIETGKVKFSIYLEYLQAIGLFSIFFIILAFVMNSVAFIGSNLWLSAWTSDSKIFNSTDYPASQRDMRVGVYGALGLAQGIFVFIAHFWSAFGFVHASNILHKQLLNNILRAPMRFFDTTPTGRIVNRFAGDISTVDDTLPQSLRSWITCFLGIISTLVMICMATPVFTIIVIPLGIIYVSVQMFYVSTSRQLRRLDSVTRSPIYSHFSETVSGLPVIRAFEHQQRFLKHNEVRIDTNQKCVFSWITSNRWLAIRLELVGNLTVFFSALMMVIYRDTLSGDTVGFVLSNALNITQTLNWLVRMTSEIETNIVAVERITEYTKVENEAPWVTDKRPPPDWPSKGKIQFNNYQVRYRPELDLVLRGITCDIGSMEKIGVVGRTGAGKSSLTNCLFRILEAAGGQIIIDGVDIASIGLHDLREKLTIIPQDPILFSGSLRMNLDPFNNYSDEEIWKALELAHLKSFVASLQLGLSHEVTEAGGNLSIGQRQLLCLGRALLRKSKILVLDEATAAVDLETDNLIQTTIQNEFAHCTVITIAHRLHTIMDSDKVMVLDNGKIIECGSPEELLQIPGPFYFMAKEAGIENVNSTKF
CYP2C19, sequence (P33261 whole entry): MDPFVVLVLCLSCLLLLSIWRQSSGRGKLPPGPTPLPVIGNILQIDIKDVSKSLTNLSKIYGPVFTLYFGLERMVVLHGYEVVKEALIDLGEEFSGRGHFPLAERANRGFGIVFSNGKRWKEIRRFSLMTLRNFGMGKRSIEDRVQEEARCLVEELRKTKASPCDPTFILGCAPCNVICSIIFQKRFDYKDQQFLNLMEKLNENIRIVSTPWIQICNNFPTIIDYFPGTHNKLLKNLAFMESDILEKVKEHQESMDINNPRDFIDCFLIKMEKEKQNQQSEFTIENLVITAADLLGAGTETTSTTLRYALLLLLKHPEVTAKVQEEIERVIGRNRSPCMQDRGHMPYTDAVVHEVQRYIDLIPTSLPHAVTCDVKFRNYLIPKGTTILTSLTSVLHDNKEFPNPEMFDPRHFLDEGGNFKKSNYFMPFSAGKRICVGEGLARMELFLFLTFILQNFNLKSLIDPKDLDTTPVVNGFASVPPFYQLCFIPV
CYP3A4, sequence (P08684 whole entry): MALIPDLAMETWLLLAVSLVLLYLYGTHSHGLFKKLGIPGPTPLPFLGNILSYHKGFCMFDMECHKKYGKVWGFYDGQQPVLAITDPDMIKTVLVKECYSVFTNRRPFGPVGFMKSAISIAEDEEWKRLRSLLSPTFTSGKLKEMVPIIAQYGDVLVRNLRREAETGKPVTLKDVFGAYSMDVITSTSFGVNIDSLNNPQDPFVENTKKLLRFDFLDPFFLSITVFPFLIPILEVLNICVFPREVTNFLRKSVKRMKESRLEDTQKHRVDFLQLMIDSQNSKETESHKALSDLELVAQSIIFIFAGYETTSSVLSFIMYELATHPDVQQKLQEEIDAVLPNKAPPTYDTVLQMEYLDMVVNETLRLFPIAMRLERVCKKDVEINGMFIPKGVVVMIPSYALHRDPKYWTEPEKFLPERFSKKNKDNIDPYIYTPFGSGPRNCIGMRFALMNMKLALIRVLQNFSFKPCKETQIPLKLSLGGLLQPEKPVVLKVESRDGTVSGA

A word on the IC50: it is the concentration that gives 50% inhibition. `CCOC(=O)[C@@H]1CC2(CCN(c3cc(O[C@H](c4ccc(Cl)cc4-c4ccccc4)C(F)(F)F)nc(N)n3)CC2)CN1` [Rodatristat ethyl, (S)-ethyl 8-(2-amino-6-((R)-1-(5-chloro-[1,1′-biphenyl]-2-yl)-2,2,2-trifluoroethoxy)pyrimidin-4-yl)-2,8-diazaspiro[4.5]decane-3-carboxylate]: the “In vitro substrate? CYP3A4” value at CYP3A4 is reported as “No”. The “In vitro substrate? MRP2” value at MRP2 is “not a substrate; also recorded: not likely”. Also, the “In vitro substrate? BCRP” value at BCRP was “not a substrate; also recorded: not likely”. For the same molecule, the “In vitro substrate? P-gp” value at P-gp is “not a substrate; also recorded: not likely”. Also, the IC50 is 2800 nM at CYP2C8; more than 30000 nM on CYP2C9; more than 30000 nM on CYP1A2 (human liver microsomes, read-out: In vitro IC50, direct inhibition, CYP1A2); more than 30000 nM on CYP2C19 (human liver microsomes, read-out: In vitro IC50, direct inhibition, CYP2C19). On CYP2C8, the “Calculated R1 Value, CYP2C8” value is reported as less than 1.02. The “Direct inhibition of CYP2C9 (in words)” value at CYP2C9 is recorded as “Neither rodatristat ethyl nor rodatristat inhibit”.

A word on the inhibition: it is the percentage by which the read-out fell short of the control. Read a high inhibition as a strong effect. Regarding `Nc1nc(O[C@H](c2ccc(Cl)cc2-c2ccccc2)C(F)(F)F)cc(N2CCC3(CC2)CN[C@H](C(=O)O)C3)n1` [Rodatristat, (S)-8-(2-amino-6-((R)-1-(5-chloro-[1,1′-biphenyl]-2-yl)-2,2,2-trifluoroeth-oxy)pyrimidin-4-yl)-2,8-diazaspiro[4.5]decane-3-carboxylic acid], the “In vitro substrate? CYP3A4” value on CYP3A4 is recorded as “No”. In addition, the “In vitro substrate? MRP2” value on MRP2 is “not an in vitro substrate; also recorded: Not likely”. Further, the “In vitro substrate? BCRP” value at BCRP is “potential substrate”. The “In vitro substrate? P-gp” value on P-gp is listed as “potential substrate”. In addition, on CYP2C8 (equivalent to IC50/2), the Ki is 1400 nM. Further, at CYP2C8, the IC50 came to 2800 nM and the “Calculated R1 Value, CYP2C8” value is on record as less than 1.02. On CYP2C8 (listed as rodatristat), the “Calculated R1 Value, CYP2C8” value was less than 1.02. Moreover, on CYP2C9, the “Direct inhibition of CYP2C9 (in words)” value was “Neither rodatristat ethyl nor rodatristat inhibit” and the half-maximal inhibitory concentration (IC50) was more than 30000 nM. On CYP2C9 (human, pooled human liver microsomes, 30 μM, range given across CYPs 2B6, 2C9 and 3A4/5), the inhibition at 30 µM was in the range of 27 to 45%. Further, the “Direct inhibition of CYP1A2 (in words)” value on CYP1A2 is given as “did not inhibit”. In addition, the “Direct inhibition of CYP2C19 (in words)” value at CYP2C19 is listed as “did not inhibit”.
